Data reported in patent US20120149080A1, “YEAST PRODUCTION CULTURE FOR THE PRODUCTION OF BUTANOL” (Butamax(TM) Advanced Biofuels LLC, priority 2010, published 2012).

What was measured:
[1] = tested on: Issatchenkia orientalis PNY0575; assay: 24 h survival (CFU) of non-Saccharomyces yeast, HCD/LCD; assay type: cell-based; settings: for Percent Survival HCD: high cell density; for Percent Survival LCD: low cell density
Method: (§1) Non-Saccharomyces yeast strains were tested to determine whether isobutanol tolerance is affected by cell density for these yeasts. Kluyveromyces marxianus PNY0577 (American Type Culture Collection (“ATCC”), Manassas, Va.; ATCC #8554), Kluyveromyces marxians PNY0578 (ATCC #16045), Pichia membranifaciens PNY0572, Pichia anomala PNY0573, Pichia sp. PNY0574, Issatchenkia orientalis PNY0575 and Issatchenkia orientalis PNY0576 were tested. The Pichia and Issatchenkia strains used are wild-type representatives of the designated genera. Other representative strains are commercially available, for example, from ATCC.
(§2) The non-Saccharomyces yeast strains were plated from freezer vials onto YPD agar (Teknova, Hollister, Calif.) and incubated overnight at 30° C. Cells from each strain from the YPD plates were inoculated into a 25 ml pre-culture of YPD broth) (Teknova, Hollister, Calif.) with an initial OD600 of 0.06 to 0.08 and grown for 7 hours in an aerobic shaker at 30° C. An aliquot of each pre-culture was inoculated into 200 ml YPD broth, to provide an initial OD600 of 0.06 to 0.08 and the resulting culture was incubated with aeration at 30° C. for approximately 17 hours. The optical density of the culture was measured, the culture was centrifuged and the cells were resuspended to yield an OD600 of 5 in fresh YPD broth. This is referred to as a high cell density (HCD) culture. This culture was diluted 100 fold into fresh YPD broth to give a culture with an OD600 of 0.05. This is referred to as a low cell density (LCD) culture. These cultures were incubated at 30° C. with shaking for 30 minutes for an acclimation period. At the end of the 30 minute acclimation period, the OD600 was measured.
(§3) 5 ml of low or high cell density culture was dispensed to 15 ml conical tubes which contained the concentrations of isobutanol to be tested. The tubes were placed in a rotary drum at 30° C. and incubated for 24 hours. The isobutanol concentration was 1.0% or 2.0%. A control culture for each strain contained no isobutanol. The time of addition of cells was “time 0”. […] All samples were filtered with Acrodisc CR PTFE 0.2 μm filters (Pall Life Sciences, Port Washington, N.Y.) and analyzed using a Shodex SH1011 column (8 mm ID×300 mm length; Showa Denko America, Inc., New York, N.Y.) and a Shodex SH-G as a guard column. The injection volume was 10 μL. The mobile phase was 0.01N sulfuric acid. The column temperature was 50° C. with a mobile phase flow rate of 0.5 mL/min. For detection, a photometric detector at 210 nm and a refractive index detector were used.
(§4) Colony forming units (CFUs) were determined on YPD plates at time 0 for the controls and at 24 hours for all samples, including the control cultures, using standard microbiological methods. Essentially, cells were serially diluted in a microtiter plate (20 μl of the culture and 180 μl of YPD broth) and 10 μl of the various dilutions were spotted onto triplicate agar plates and incubated at 30° C. for 24 and 48 hours. Colonies were counted after 48 hours and CFUs/ml were calculated. The percent survival was calculated based on the CFUs/ml of the 24 hour HCD or LCD control culture for each strain and results are given in Table 3.

[2] = tested on: Issatchenkia orientalis PNY0576; assay: as above; assay type: cell-based; settings: for Percent Survival HCD: high cell density; for Percent Survival LCD: low cell density
Method: as §1, §2, §3, §4

[3] = tested on: Kluyveromyces marxianus PNY0577; assay: as above; assay type: cell-based; settings: for Percent Survival HCD: high cell density; for Percent Survival LCD: low cell density
Method: as §1, §2, §3, §4

[4] = tested on: Kluyveromyces marxianus PNY0578; assay: as above; assay type: cell-based; settings: for Percent Survival HCD: high cell density; for Percent Survival LCD: low cell density
Method: as §1, §2, §3, §4

Pichia anomala PNY0573 = assay: as above; assay type: cell-based; settings: for Percent Survival HCD: high cell density; for Percent Survival LCD: low cell density
Method: as §1, §2, §3, §4

[5] = tested on: Pichia membranifaciens PNY0572; assay: as above; assay type: cell-based; settings: for Percent Survival HCD: high cell density; for Percent Survival LCD: low cell density
Method: as §1, §2, §3, §4

Pichia sp. PNY0574 = assay: as above; assay type: cell-based; settings: for Percent Survival HCD: high cell density; for Percent Survival LCD: low cell density
Method: as §1, §2, §3, §4

S. cerevisiae PNY0569 = assay: Glucose utilization rate under non-growing conditions in buffer; assay type: cell-based, Saccharomyces cerevisiae; settings: PNY0569, 20 g/L isobutanol
Method: (§5) Isobutanol production may or may not be coupled to growth. Therefore we measured the glucose consumption rates under non-growing conditions using three different pH buffers.
(§6) Glucose consumption rates were determined in phosphate buffer pH 6.5 as outlined by Diderich, J. A., et al., Microbiology, 1999, 145 p. 3447-54. We also determined the glucose consumption rates at pH 5.25 and pH 4.0 using MES buffer.
(§7) Cells were grown overnight at 30° C. in YPD (125 ml in a 500 ml flask). Cells were centrifuged and resuspended in buffer (0.1M phosphate buffer pH 6.0 or 0.1M MES buffer pH 5.25 or 0.1M MES buffer pH 4.0), washed one time, and then resuspended such that each cell suspension had approximately 16 OD or 160 million cell/ml. 10 ml of these stock cells were transferred to flasks containing 10 ml of the corresponding buffer containing 40 g/L glucose and varying concentrations of isobutanol. At various times samples (500 to 700 ul) were transferred to a tube containing an equal volume of 10% TCA. Samples were centrifuged and glucose determined in the YSI glucose analyzer. Glucose consumption rates were determined by plotting the amount of glucose consumed over time.

S. cerevisiae PNY0614 = assay: as above; assay type: cell-based, Saccharomyces cerevisiae; settings: PNY0614, 20 g/L isobutanol
Method: as §5, §6, §7

CC(C)CO [Isobutanol, isobutanol]
Percent Survival HCD ([1]; PNY0575, 1% isobutanol): 61.3%
Percent Survival LCD ([1]; PNY0575, 1% isobutanol): 3.1%
Percent Survival HCD ([1]; PNY0575, 2% isobutanol): <0.001%
Percent Survival LCD ([1]; PNY0575, 2% isobutanol): <0.001%
Percent Survival HCD ([2]; PNY0576, 1% isobutanol): 50%
Percent Survival LCD ([2]; PNY0576, 1% isobutanol): 12.8%
Percent Survival HCD ([2]; PNY0576, 2% isobutanol): <0.001%
Percent Survival LCD ([2]; PNY0576, 2% isobutanol): <0.001%
Percent Survival HCD ([3]; PNY0577, 1% isobutanol): 39.5%
Percent Survival LCD ([3]; PNY0577, 1% isobutanol): 0.1%
Percent Survival HCD ([3]; PNY0577, 2% isobutanol): <0.001%
Percent Survival LCD ([3]; PNY0577, 2% isobutanol): <0.001%
Percent Survival HCD ([4]; PNY0578, 1% isobutanol): 51%
Percent Survival LCD ([4]; PNY0578, 1% isobutanol): <0.001%
Percent Survival HCD ([4]; PNY0578, 2% isobutanol): <0.001%
Percent Survival LCD ([4]; PNY0578, 2% isobutanol): <0.001%
Percent Survival HCD (Pichia anomala PNY0573; PNY0573, 1% isobutanol): 75.6%
Percent Survival LCD (Pichia anomala PNY0573; PNY0573, 1% isobutanol): 0.1%
Percent Survival HCD (Pichia anomala PNY0573; PNY0573, 2% isobutanol): <0.001%
Percent Survival LCD (Pichia anomala PNY0573; PNY0573, 2% isobutanol): <0.001%
Percent Survival HCD ([5]; PNY0572, 1% isobutanol): 80.6%
Percent Survival LCD ([5]; PNY0572, 1% isobutanol): 2.7%
Percent Survival HCD ([5]; PNY0572, 2% isobutanol): <0.001%
Percent Survival LCD ([5]; PNY0572, 2% isobutanol): <0.001%
Percent Survival HCD (Pichia sp. PNY0574; PNY0574, 1% isobutanol): 100%
Percent Survival LCD (Pichia sp. PNY0574; PNY0574, 1% isobutanol): 10%
Percent Survival HCD (Pichia sp. PNY0574; PNY0574, 2% isobutanol): 100%
Percent Survival LCD (Pichia sp. PNY0574; PNY0574, 2% isobutanol): 0.5%
Glucose Utilization (g/gdcw/h) (S. cerevisiae PNY0569; pH 4, non-growing): 0.7 g/gdcw/h
Glucose Utilization (g/gdcw/h) (S. cerevisiae PNY0569; pH 5.25, non-growing): 0.8 g/gdcw/h
Glucose Utilization (g/gdcw/h) (S. cerevisiae PNY0569; pH 6.5, non-growing): 0.6 g/gdcw/h
Glucose Utilization (g/gdcw/h) (S. cerevisiae PNY0614; pH 4, non-growing): 0.9 g/gdcw/h
Glucose Utilization (g/gdcw/h) (S. cerevisiae PNY0614; pH 5.25, non-growing): 1.1 g/gdcw/h
Glucose Utilization (g/gdcw/h) (S. cerevisiae PNY0614; pH 6.5, non-growing): 0.7 g/gdcw/h
